Test results: patent US20250051333A1, “POLYMORPH OF KRAS INHIBITOR, PREPARATION METHOD THEREFOR, AND USE THEREOF” (GENFLEET THERAPEUTICS (SHANGHAI) INC., priority 2021, published 2025)

Key:
Format in all cases: physicochemical
[1] = Solid stability, 60° C./75% RH open, physical stability by XRPD; conditions: for Crystalline form: XRPD; for Polymorphic transition: 60° C./75% RH open, up to 1 month
Method: Appropriate amounts of samples were weighed and let stand at 60° C./75% RH open to the atmosphere for 7 days, 14 days, and 1 month. Samples of different standing times were evaluated for the physical stability of the crystalline forms by XRPD.

[2] = Hygroscopicity by DVS testing; conditions: for Desorption curve (cycle 1, desorption): DVS 25° C., from 30% RH to 95% RH
Method: The dynamic vapor sorption (DVS) analysis may be conducted on the DVS Intrinsic system from Surface Measurement Systems (SMS). Temperature: 25° C.: sample amount: 20-40 mg; protective gas and flow rate: N2, 200 mL/min; dm/dt: 0.002%/min; minimum dm/dt equilibration time: 10 min, maximum equilibration time. 180 min; RH range: room humidity to 95% RH to 0% RH to 95% RH: 0% RH to 95% RH to 0% RH; RH gradient: 10% RH (0% RH to 90% RH & 90% RH to 0% RH): 5% RH (90% RH to 95% RH & 95% RH to 90% RH).

[3] = Variable-temperature XRPD / heating test of crystalline forms
Method: The X-ray powder diffraction (XRPD) analysis may be conducted on the X'Pert3 X-ray powder diffraction analyzer with the following parameters: Cu, kα; Kα1 (Å): 1.540598: Kα2 (Å): 1.544426; Kα2/Kα1 intensity ratio: 0.50; voltage: 45 kV; current: 40 mA; divergent slit: ⅛°; scan mode: continuous: scanning range: 3° to 40°: scanning step: 0.0263°; time of step: 46.665 s: scanning time: 5 min 03 s. Alternatively, the analysis may be conducted on the PANalytical Empyrean X-ray powder diffraction analyzer with the following parameters: Cu, kα; Kα1 (Å): 1.540598: Kα2 (Å); 1.544426: Kα2/Kα1 intensity ratio: 0.50: voltage: 45 kV; current; 40 mA: divergent slit: automatic; scan mode: continuous; scanning range: 3° to 40°; scanning step: 0.0167°; time of step: 17.780 s/33.020 s; scanning time: 5 min 32 s/10 min 13 s.

[4] = Solid stability, 60° C. sealed 24 hours and 40° C./75% RH open one week (XRPD, HPLC, KF); conditions: for Purity (%): HPLC; for Water content (%): KF test; for Polymorphic transition or not: XRPD; for HPLC purity change / Polymorphic transition: 60° C. sealed 24 hours and 40° C./75% RH open one week; for Relative to the initial (%): purity
Source text: Proton nuclear magnetic resonance may be conducted on the Bruker 400M nuclear magnetic resonance spectrometer, with deuterated chloroform, deuterated methanol, or dimethyl sulfoxide-d6 as the solvent. Water titration (KF test) may be conducted on the Metrohm 870 KF Titrinoplus from Sigma-Aldrich, with ultrapure water for calibration and Hydranal® R-Composite 5 as the titration reagent. HPLC-grade methanol was used to dissolve the solid sample.
High-performance liquid chromatography (HPLC) may be conducted on the Agilent 1260 high-performance liquid chromatograph system (Waters Xbridge C18, 150×4.6 mm, 5 μm column).
In order to further evaluate the solid stability of the crystalline forms of the present invention, appropriate amounts of samples were for at 60° C. in a sealed condition for 24 hours and at 40° C./75% RH open to the atmosphere for a week.

[5] = Humidity induction test: standing at various humidities at room temperature; conditions: for Polymorphic transition or not: room temperature, open
Source text: Some of the crystalline forms prepared in the above examples were investigated in a humidity induction test at room temperature.

[6] = 22.5% RH (saturated potassium acetate), 10 days
[7] = 22.5% RH (saturated potassium acetate), 23 days
[8] = 22.5% RH (saturated potassium acetate), 30 days
[9] = 43.2% RH (saturated potassium carbonate), 10 days
[10] = 43.2% RH (saturated potassium carbonate), 23 days
[11] = 43.2% RH (saturated potassium carbonate), 30 days
[12] = 60% RH (stability chamber), 10 days
[13] = 60% RH (stability chamber), 23 days
[14] = 60% RH (stability chamber), 30 days
[15] = 84.2% RH (saturated potassium chloride), 10 days
[16] = 84.2% RH (saturated potassium chloride), 23 days
[17] = 84.2% RH (saturated potassium chloride), 30 days
[18] = 30 days open to the atmosphere at room temperature at 22.5% RH to 84.2% RH
[19] = 23 days open to the atmosphere at room temperature at 43.2% RH to 84.2% RH

C=CC(=O)N1CCN2c3c(c(=O)n(-c4c(C)ccnc4C(C)C)c4nc(-c5c(O)cccc5F)c(Cl)cc34)N(C)C(=O)[C@H]2C1 (single isomer, unassigned) [Amorphous form sample]
Crystalline form ([1]; 60° C./75% RH (open), 1 month): Polymorphic transition
Crystalline form ([1]; 60° C./75% RH (open), 7 days): Amorphous form
Polymorphic transition [1]: occurrence of polymorphic transition
Crystalline form ([1]; Initial, 0 days): Amorphous form
Desorption curve (cycle 1, desorption) [2]: a plateau was observed

C=CC(=O)N1CCN2c3c(c(=O)n(-c4c(C)ccnc4C(C)C)c4nc(-c5c(O)cccc5F)c(Cl)cc34)N(C)C(=O)[C@H]2C1 [Crystalline form 3, (4aR,8R)-3-acryloyl-11-chloro-10-(2-fluoro-6-hydroxyphenyl)-8-(2-isopropyl-4-methylpyridin-3-yl)-6-methyl-2,3,4,4a,6,8-hexahydro-1H-pyrazino[1′,2′:4,5]pyrazino[2,3-c][1,8]naphthyridine-5,7-dione]
Crystalline form ([1]; 60° C./75% RH (open), 1 month): Crystalline form 3
Crystalline form ([1]; 60° C./75% RH (open), 7 days): Crystalline form 3
Crystalline form ([1]; 60° C./75% RH (open), 14 days): Crystalline form 3
Polymorphic transition [1]: no transition
Crystalline form ([1]; Initial, 0 days): Crystalline form 3
Crystalline form change on heating (variable-temperature XRPD) ([3]; heating to 150° C. and cooling to 30° C. in a N2 atmosphere): no crystalline form changes were observed
Purity (%) ([4]; 40° C./75% RH/open, 1 week): 99.27%
Water content (%) ([4]; 40° C./75% RH/open, 1 week): 1.3%
Polymorphic transition or not ([4]; 40° C./75% RH/open, 1 week): No
HPLC purity change [4]: no significant decrease in HPLC purity
Polymorphic transition [4]: no polymorphic transition
Purity (%) ([4]; 60° C./sealed, 1 day): 99.27%
Water content (%) ([4]; 60° C./sealed, 1 day): 1.1%
Polymorphic transition or not ([4]; 60° C./sealed, 1 day): No
Purity (%) ([4]; Initial): 99.33%
Water content (%) ([4]; Initial): 0.9%
Relative to the initial (%) ([4]; 40° C./75% RH/open, 1 week): 99.94%
Relative to the initial (%) ([4]; 60° C./sealed, 1 day): 99.94%
Weight gain (DVS) ([2]; 25° C./80% RH): less than 0.9%
Hygroscopicity (in words) ([2]; DVS at 25° C., 0% RH to 95% RH): almost no hygroscopicity
Crystalline form after DVS testing (XRPD) ([2]; after DVS testing): did not change
Polymorphic transition or not [5, 6]: No
Polymorphic transition or not [5, 7]: No
Polymorphic transition or not [5, 8]: No
Polymorphic transition or not [5, 9]: No
Polymorphic transition or not [5, 10]: No
Polymorphic transition or not [5, 11]: No
Polymorphic transition or not [5, 12]: No
Polymorphic transition or not [5, 13]: No
Polymorphic transition or not [5, 14]: No
Polymorphic transition or not [5, 15]: No
Polymorphic transition or not [5, 16]: No
Polymorphic transition or not [5, 17]: No
Polymorphic transition [5, 18]: neither crystalline form 6 (Example 12) nor crystalline form 3 (Example 3) exhibited polymorphic transition

C=CC(=O)N1CCN2c3c(c(=O)n(-c4c(C)ccnc4C(C)C)c4nc(-c5c(O)cccc5F)c(Cl)cc34)N(C)C(=O)[C@H]2C1 [Crystalline form 4, (4aR,8R)-3-acryloyl-11-chloro-10-(2-fluoro-6-hydroxyphenyl)-8-(2-isopropyl-4-methylpyridin-3-yl)-6-methyl-2,3,4,4a,6,8-hexahydro-1H-pyrazino[1′,2′:4,5]pyrazino[2,3-c][1,8]naphthyridine-5,7-dione]
Crystalline form change on heating (variable-temperature XRPD) ([3]; heating to 80° C. or 130° C. in a N2 atmosphere): no significant crystalline form changes were observed

C=CC(=O)N1CCN2c3c(c(=O)n(-c4c(C)ccnc4C(C)C)c4nc(-c5c(O)cccc5F)c(Cl)cc34)N(C)C(=O)[C@H]2C1 [Crystalline form 6, (4aR,8R)-3-acryloyl-11-chloro-10-(2-fluoro-6-hydroxyphenyl)-8-(2-isopropyl-4-methylpyridin-3-yl)-6-methyl-2,3,4,4a,6,8-hexahydro-1H-pyrazino[1′,2′:4,5]pyrazino[2,3-c][1,8]naphthyridine-5,7-dione]
Polymorphic transition [1]: mild transition
Crystalline form ([1]; Initial, 0 days): Crystalline form 6
Purity (%) ([4]; 40° C./75% RH/open, 1 week): 99.56%
Water content (%) ([4]; 40° C./75% RH/open, 1 week): 8.7%
Polymorphic transition or not ([4]; 40° C./75% RH/open, 1 week): No
HPLC purity change [4]: no significant decrease in HPLC purity
Polymorphic transition [4]: no polymorphic transition
Purity (%) ([4]; 60° C./sealed, 1 day): 99.62%
Water content (%) ([4]; 60° C./sealed, 1 day): 6.2%
Polymorphic transition or not ([4]; 60° C./sealed, 1 day): No
Purity (%) ([4]; Initial): 99.61%
Water content (%) ([4]; Initial): 9.0%
Relative to the initial (%) ([4]; 40° C./75% RH/open, 1 week): 99.95%
Relative to the initial (%) ([4]; 60° C./sealed, 1 day): 100.01%
Desorption curve (cycle 1, desorption) [2]: a plateau can be observed
Crystallinity after DVS testing ([2]; after DVS testing): only slightly reduced
Polymorphic transition or not [5, 6]: No
Polymorphic transition or not [5, 7]: No
Polymorphic transition or not [5, 8]: No
Polymorphic transition or not [5, 9]: No
Polymorphic transition or not [5, 10]: No
Polymorphic transition or not [5, 11]: No
Polymorphic transition or not [5, 12]: No
Polymorphic transition or not [5, 13]: No
Polymorphic transition or not [5, 14]: No
Polymorphic transition or not [5, 15]: No
Polymorphic transition or not [5, 16]: No
Polymorphic transition or not [5, 17]: No
Polymorphic transition [5, 18]: neither crystalline form 6 (Example 12) nor crystalline form 3 (Example 3) exhibited polymorphic transition

C=CC(=O)N1CCN2c3c(c(=O)n(-c4c(C)ccnc4C(C)C)c4nc(-c5c(O)cccc5F)c(Cl)cc34)N(C)C(=O)[C@H]2C1 [Crystalline form 8, (4aR,8R)-3-acryloyl-11-chloro-10-(2-fluoro-6-hydroxyphenyl)-8-(2-isopropyl-4-methylpyridin-3-yl)-6-methyl-2,3,4,4a,6,8-hexahydro-1H-pyrazino[1′,2′:4,5]pyrazino[2,3-c][1,8]naphthyridine-5,7-dione]
Polymorphic transition or not [5, 9]: No
Polymorphic transition or not [5, 10]: No
Polymorphic transition or not [5, 12]: No
Polymorphic transition or not [5, 13]: No
Polymorphic transition or not [5, 15]: No
Polymorphic transition or not [5, 16]: No
Polymorphic transition [5, 19]: neither crystalline form 8 (Example 40) nor crystalline form 9 (Example 42) exhibited polymorphic transition

C=CC(=O)N1CCN2c3c(c(=O)n(-c4c(C)ccnc4C(C)C)c4nc(-c5c(O)cccc5F)c(Cl)cc34)N(C)C(=O)[C@H]2C1 [Crystalline form 9, (4aR,8R)-3-acryloyl-11-chloro-10-(2-fluoro-6-hydroxyphenyl)-8-(2-isopropyl-4-methylpyridin-3-yl)-6-methyl-2,3,4,4a,6,8-hexahydro-1H-pyrazino[1′,2′:4,5]pyrazino[2,3-c][1,8]naphthyridine-5,7-dione]
XRPD pattern after heating test ([3]; heated to 100° C. and exposed to air): identical to that before heating
Polymorphic transition or not [5, 9]: No
Polymorphic transition [5, 19]: neither crystalline form 8 (Example 40) nor crystalline form 9 (Example 42) exhibited polymorphic transition

C=CC(=O)N1CCN2c3c(c(=O)n(-c4c(C)ccnc4C(C)C)c4nc(-c5c(O)cccc5F)c(Cl)cc34)N(C)C(=O)[C@H]2C1 [Crystalline form 11, (4aR,8R)-3-acryloyl-11-chloro-10-(2-fluoro-6-hydroxyphenyl)-8-(2-isopropyl-4-methylpyridin-3-yl)-6-methyl-2,3,4,4a,6,8-hexahydro-1H-pyrazino[1′,2′:4,5]pyrazino[2,3-c][1,8]naphthyridine-5,7-dione]
Crystalline form change on heating (variable-temperature XRPD) ([3]; holding at 30° C. for 20 minutes and heating to 100 C in a N2 atmosphere): no significant crystalline form changes were observed
